Measurements taken from ChEMBL document CHEMBL3039007, “Structure-based identification of OATP1B1/3 inhibitors” (Mol Pharmacol, 2013).
Residues, ends and D or L forms follow the SMILES beside them. *: point of attachment. For = O=C*

Legend:
[1] = molecular target: T1, Solute carrier organic anion transporter family member 1B3 (Homo sapiens, UniProt Q9NPD5); details: chinese hamster, cho, 10 µM
T1 sequence (Q9NPD5 whole entry): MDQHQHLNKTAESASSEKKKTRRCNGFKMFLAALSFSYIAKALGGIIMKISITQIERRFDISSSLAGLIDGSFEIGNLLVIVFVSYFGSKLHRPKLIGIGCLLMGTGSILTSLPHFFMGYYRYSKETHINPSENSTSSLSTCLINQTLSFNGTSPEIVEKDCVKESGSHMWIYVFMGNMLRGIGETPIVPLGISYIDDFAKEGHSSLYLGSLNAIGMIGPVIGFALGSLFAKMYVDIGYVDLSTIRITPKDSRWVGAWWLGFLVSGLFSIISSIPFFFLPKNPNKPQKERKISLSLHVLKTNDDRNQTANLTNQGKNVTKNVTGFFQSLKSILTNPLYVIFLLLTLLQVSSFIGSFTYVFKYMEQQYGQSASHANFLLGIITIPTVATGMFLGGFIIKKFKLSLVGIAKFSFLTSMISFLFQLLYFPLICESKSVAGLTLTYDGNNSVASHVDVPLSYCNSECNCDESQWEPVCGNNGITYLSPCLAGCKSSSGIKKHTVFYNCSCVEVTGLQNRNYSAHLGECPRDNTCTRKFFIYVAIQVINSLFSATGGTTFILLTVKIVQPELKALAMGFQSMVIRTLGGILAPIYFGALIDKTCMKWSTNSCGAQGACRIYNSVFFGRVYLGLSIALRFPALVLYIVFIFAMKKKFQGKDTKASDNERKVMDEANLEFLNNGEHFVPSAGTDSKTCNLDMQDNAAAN

[2] = molecular target: T2, Solute carrier organic anion transporter family member 1B1 (Homo sapiens, UniProt Q9Y6L6); details: chinese hamster, cho, 10 µM
T2 sequence (Q9Y6L6 whole entry): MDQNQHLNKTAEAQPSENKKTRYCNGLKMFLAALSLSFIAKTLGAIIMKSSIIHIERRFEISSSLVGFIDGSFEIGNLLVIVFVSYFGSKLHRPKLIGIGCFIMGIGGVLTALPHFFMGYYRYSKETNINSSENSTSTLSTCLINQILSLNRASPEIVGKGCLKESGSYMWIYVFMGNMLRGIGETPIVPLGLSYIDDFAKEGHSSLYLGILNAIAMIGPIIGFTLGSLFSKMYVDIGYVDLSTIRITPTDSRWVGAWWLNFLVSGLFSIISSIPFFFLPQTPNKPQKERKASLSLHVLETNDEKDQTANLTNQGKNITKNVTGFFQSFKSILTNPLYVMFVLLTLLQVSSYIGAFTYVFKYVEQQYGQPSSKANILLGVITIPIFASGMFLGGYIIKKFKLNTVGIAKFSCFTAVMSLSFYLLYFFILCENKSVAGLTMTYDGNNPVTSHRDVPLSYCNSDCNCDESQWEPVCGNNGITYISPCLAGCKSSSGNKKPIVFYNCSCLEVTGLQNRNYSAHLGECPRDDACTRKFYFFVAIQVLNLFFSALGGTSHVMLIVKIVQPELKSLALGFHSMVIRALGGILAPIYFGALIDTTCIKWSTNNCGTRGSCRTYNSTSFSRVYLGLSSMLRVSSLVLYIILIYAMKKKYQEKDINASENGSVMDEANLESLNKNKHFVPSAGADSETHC

SMILES | residual activity [1] | residual activity [2]
C=C1C2=CC(=O)O[C@@H](c3ccoc3)[C@]2(C)CCC1[C@@]1(C)C=CC(=O)C(C)(C)[C@@H]1CC(=O)OC (stereo not given in full) [DEOXYANDIROBIN] | 42.8% | 27.69%
CN1C[C@H](C(=O)N[C@]2(C)O[C@@]3(O)[C@@H]4CCCN4C(=O)[C@H](Cc4ccccc4)N3C2=O)C[C@@H]2c3cccc4[nH]cc(c34)C[C@H]21.CS(=O)(=O)O [DIHYDROERGOTAMINE MESYLATE] | 10.07% | 27.06%
CCOC(=O)C(=O)C1(C(=O)OCC)Oc2cc(OC)cc(OC)c2C(=O)C1c1ccccc1 (stereo not given) [2-ETHOXYCARBONYL-2-ETHOXYOXALOYLOXYDIHYDROCHRYSIN DIMETHYL ETHER] | 100.5% | 117%
C=C1C[C@H]2O[C@]2(C)CC[C@@H]2[C@@H]1CC2(C)C | 80.12% | 54.1%
Cn1nnnc1SCC1=C(C(=O)[O-])N2C(=O)[C@@H](NC(=O)[C@H](OC=O)c3ccccc3)[C@H]2SC1.[Na+] [CEFAMANDOLE NAFATE] | 64.97% | 63%
CO[C@H]1[C@H](O)[C@H](O[C@H]2CC[C@@]3(C=O)[C@H](CC[C@@H]4[C@@H]3CC[C@]3(C)[C@@H](C5=CC(=O)OC5)CC[C@]43O)C2)O[C@@H](C)[C@@H]1O [PERUVOSIDE] | 112.7% | 62.43%
CCC(=O)O[C@]1(C(=O)CCl)[C@@H](C)C[C@H]2[C@@H]3CCC4=CC(=O)C=C[C@]4(C)[C@@]3(F)[C@@H](O)C[C@@]21C [CLOBETASOL PROPIONATE] | 21.34% | 20.25%
Cn1c(=O)[nH]c2nc[nH]c2c1=O [1-METHYLXANTHINE] | 96.5% | 102.1%
CC1=C(CC(=O)O)c2cc(F)ccc2/C1=C\c1ccc([S+](C)[O-])cc1 (stereo not given) | 88.55% | 240.6%
COC(=O)[C@]1(C)CC[C@]2(C)CC[C@]3(C)C4=CCc5c(cc(O)c(O)c5C)[C@]4(C)CC[C@@]3(C)[C@@H]2C1 [PRISTIMEROL] | 86.64% | 70.1%
CNC1(C)C2CCC(C2)C1(C)C.Cl (stereo not given) [MECAMYLAMINE HYDROCHLORIDE] | 106.8% | 93.56%
COc1c2c(cc3c1OCO3)CC[N+](C)=C2.[Cl-] [COTARNINE CHLORIDE] | 93.29% | 85.95%
CC(C)=CC1C(C(=O)O)C1(C)C (stereo not given) [CHRYSANTHEMIC ACID] | 97.37% | 83.79%
CO[C@@]1(NC(=O)Cc2cccs2)C(=O)N2C(C(=O)[O-])=C(COC(N)=O)CS[C@@H]21.[Na+] [CEFOXITIN SODIUM] | 82.79% | 68.58%
Cc1cccc(C)c1N=C1NCCCS1 [XYLAZINE] | 83.59% | 64.31%
COc1cc(O)cc(OC)c1OC [ANTIAROL] | 113% | 95.16%
CO[C@]12C[C@@H](COC(=O)c3cncc(Br)c3)CN(C)[C@@H]1Cc1cn(C)c3cccc2c13 [NICERGOLINE] | 124.1% | 91.22%
CC(=O)O[C@H]1C[C@@H](OC(C)=O)C(C)(C)[C@@H]2CC(=O)[C@]3(C)[C@H](CC[C@@]4(C)[C@H](C(=O)O)OC(=O)[C@H]5O[C@]543)[C@@]12C | 72.75% | 72.69%
Oc1c(Cl)cc(Cl)c2cccnc12 [CHLOROXINE] | 62.22% | 43.47%
CSCC[C@H](NC=O)C(=O)N[C@@H](Cc1ccccc1)C(=O)O (For-Met-Phe-OH) | 104.4% | 38.77%

SMILES | residual activity [1] | residual activity [2]
CC(=O)O[C@H]1CC[C@@]2(C)C(=CC[C@@H]3[C@@H]2CC[C@]2(C)C(=O)CC[C@@H]32)C1 [DEHYDROEPIANDROSTERONE ACETATE] | 140.4% | 97.61%
CC1(C)S[C@@H]2[C@H](NC(=O)COc3ccccc3)C(=O)N2[C@H]1C(=O)[O-].[K+] [PENICILLIN V POTASSIUM] | 108.8% | 91.66%
CCc1cccc(CC)c1N(COC)C(=O)CCl [ALACHLOR] | 105% | 103.5%
CC[C@@H](C)C(=O)O[C@H]1[C@H](O)[C@H]2[C@@H](CN3C[C@@H](C)CC[C@H]3[C@@]2(C)O)[C@@H]2C[C@]34O[C@]5(O)[C@@H](OC(=O)[C@@](C)(O)CC)CC[C@@]3(C)[C@@H]5[C@@H](OC(C)=O)[C@@H](OC(C)=O)[C@H]4[C@@]21O [PROTOVERATRINE A] | 77.86% | 93.58%
CN1CCN(CCCN2c3ccccc3Sc3ccc(C(F)(F)F)cc32)CC1.Cl | 70.51% | 146.4%
CC(=O)O[C@H]1CC[C@@]2(C)[C@@H](CC[C@H]3[C@@H]4CC=C(C(C)=O)[C@@]4(C)C(=O)C[C@@H]32)C1 | 85.5% | 81.91%
Cn1c(=O)c2[nH]c(C3CCCC3)nc2n(C)c1=O [8-CYCLOPENTYLTHEOPHYLLINE] | 94.04% | 111.5%
C[C@@H]1CC[C@H]2C(C)(C)[C@H]3C[C@@]12CC[C@@]3(C)O [CEDROL] | 107.7% | 119.8%
Cc1ccc2c(c1)CC[C@H]1CC(=O)CC[C@]21C [13-METHYL-4,4-BISNOR-8,11,13-PODOCARPATRIEN-3-ONE] | 93.8% | 162.9%
Cc1cc(N)c2ccccc2[n+]1CCCCCCCCCC[n+]1c(C)cc(N)c2ccccc21.[Cl-].[Cl-] [DEQUALINIUM CHLORIDE] | 111.4% | 158.8%
CC(=O)Nc1ccc(S(=O)(=O)Nc2ccc([N+](=O)[O-])cc2)cc1 | 88.89% | 61.58%
COP(=S)(OC)Oc1ccc(Sc2ccc(OP(=S)(OC)OC)cc2)cc1 [TEMEFOS] | 89.27% | 144.3%
Cn1c(=O)[nH]c(=O)c2[nH]cnc21 [3-METHYLXANTHINE] | 95.53% | 101.5%
COc1cc(C(=O)NCc2ccc(OCCN(C)C)cc2)cc(OC)c1OC.Cl [TRIMETHOBENZAMIDE HYDROCHLORIDE] | 140.2% | 111%
Cc1onc(-c2ccccc2Cl)c1C(=O)N[C@@H]1C(=O)N2[C@@H]1SC(C)(C)[C@@H]2C(=O)[O-].O.[Na+] [CLOXACILLIN SODIUM] | 63.22% | 47.3%
O=C(O)COc1cc(Cl)c(Cl)cc1Cl [2,4,5-TRICHLOROPHENOXYACETIC ACID] | 96.75% | 95.54%
OCCN1CCN(CCCN2c3ccccc3Sc3ccc(Cl)cc32)CC1 [PERPHENAZINE] | 113.3% | 130%
N[C@H](Cc1ccccc1)C(=O)O [D-PHENYLALANINE] | 84.71% | 73.08%
CCN(CC)C(=S)SSC(=S)N(CC)CC | 64.06% | 71.59%
O=C([O-])Cc1ccccc1Nc1c(Cl)cccc1Cl.[Na+] [DICLOFENAC SODIUM] | 71.01% | 110.6%
